# In patent US20240270741A1 (Cogent Biosciences, Inc., priority 2023, published 2024):
# Target: FGFR2 (Homo sapiens, UniProt P21802)
# Assay: FGFR wild type enzyme assay (HTRF KinEASE-TK), FGFR2
# Settings: Enz FGFR2 (nM), FGFR2 wild type enzyme assay
# Sequence of FGFR2 (P21802 399-821 limits assumed): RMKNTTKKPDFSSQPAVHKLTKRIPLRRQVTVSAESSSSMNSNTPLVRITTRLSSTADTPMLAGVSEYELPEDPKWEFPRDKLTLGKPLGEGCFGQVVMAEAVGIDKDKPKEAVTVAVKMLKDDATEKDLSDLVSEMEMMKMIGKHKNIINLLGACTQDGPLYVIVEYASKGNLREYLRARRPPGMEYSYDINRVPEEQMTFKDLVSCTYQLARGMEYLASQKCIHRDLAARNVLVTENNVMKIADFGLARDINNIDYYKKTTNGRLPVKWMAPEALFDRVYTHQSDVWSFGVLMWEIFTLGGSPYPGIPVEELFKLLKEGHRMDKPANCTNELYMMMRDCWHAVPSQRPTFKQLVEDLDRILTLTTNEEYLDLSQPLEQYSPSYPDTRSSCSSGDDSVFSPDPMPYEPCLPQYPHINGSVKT
row,SMILES,IC50 [nM]
1,"N#Cc1cc(F)ccc1Sc1cc(-c2ccc(N3CCOC(CO)C3)nc2)cn2ncc(C#N)c12 (stereo not shown) [Example 646, 4-((2-cyano-4-fluorophenyl)thio)-6-(6-(2-(hydroxymethyl)morpholi-no)pyridin-3-yl)pyrazolo[1,5-a]pyridine-3-carbonitrile]",1
2,"CN1C[C@@H](n2cc(-c3cc(Sc4ccccc4C#N)c4c(C#N)cnn4c3)cn2)CCC1=O [Example 647, (S)-4-((2-cyanophenyl)thio)-6-(1-(1-methyl-6-oxopiperidin-3-yl)-1H-pyrazol-4-yl)pyrazolo[1,5-a]pyridine-3-carbonitrile]",1
3,"N#Cc1ccccc1Sc1cc(-c2ccc(N3CCO[C@@H](CO)C3)nc2)cn2ncc(C#N)c12 [Example 648, (R)-4-((2-cyanophenyl)thio)-6-(6-(2-(hydroxymethyl)morpholi-no)pyridin-3-yl)pyrazolo[1,5-a]pyridine-3-carbonitrile]",0.6
4,"N#Cc1ccccc1Sc1cc(-c2cnn(CC(=O)N3CC[C@H](O)C3)c2)cn2ncc(C#N)c12 [Example 651, (S)-4-((2-cyanophenyl)thio)-6-(1-(2-(3-hydroxypyrrolidin-1-yl)-2-oxoethyl)-1H-pyrazol-4-yl)pyrazolo[1,5-a]pyridine-3-carbonitrile]",1
5,"N#Cc1ccccc1Sc1cc(-c2cnn(CC(=O)N3CC[C@@H](O)C3)c2)cn2ncc(C#N)c12 [Example 652, (R)-4-((2-cyanophenyl)thio)-6-(1-(2-(3-hydroxypyrrolidin-1-yl)-2-oxoethyl)-1H-pyrazol-4-yl)pyrazolo[1,5-a]pyridine-3-carbonitrile]",1
6,"N#Cc1cnn2cc(-c3ccc(N4C[C@H](O)[C@@H](O)C4)nc3)cc(Sc3ncccc3F)c12 [Example 654, 6-(6-((3S,4S)-3,4-dihydroxypyrrolidin-1-yl)pyridin-3-yl)-4-((3-fluoropyridin-2-yl)thio)pyrazolo[1,5-a]pyridine-3-carbonitrile]",3
7,"N#Cc1cc(F)ccc1Sc1cc(-c2ccc(N3CCNC(=O)C3)nc2)cn2ncc(C#N)c12 [Example 657, 4-((2-cyano-4-fluorophenyl)thio)-6-(6-(3-oxopiperazin-1-yl)pyridin-3-yl)pyrazolo[1,5-a]pyridine-3-carbonitrile]",3
8,"CC(=O)N1CCC(N(C)c2ccc(-c3cc(Sc4ccccc4C#N)c4c(C#N)cnn4c3)cn2)CC1 [Example 659, 6-(6-((1-acetylpiperidin-4-yl)(methyl)amino)pyridin-3-yl)-4-((2-cyanophenyl)thio)pyrazolo [1,5-a]pyridine-3-carbonitrile]",0.3
9,"N#Cc1ccccc1Sc1cc(-c2ccc(N3C[C@@H](O)[C@@H](O)C3)nc2)cn2ncc(C#N)c12 [Example 660, 4-((2-cyanophenyl)thio)-6-(6-((3R,4S)-3,4-dihydroxypyrrolidin-1-yl)pyridin-3-yl)pyrazolo[1,5-a]pyridine-3-carbonitrile]",1
10,"N#Cc1cnn2cc(-c3ccc(N4C[C@@H](O)[C@@H](O)C4)nc3)cc(Sc3ncccc3F)c12 [Example 661, 6-(6-((3R,4S)-3,4-dihydroxypyrrolidin-1-yl)pyridin-3-yl)-4-((3-fluoropyridin-2-yl)thio)pyrazolo[1,5-a]pyridine-3-carbonitrile]",2
11,"CC(=O)N1CCN(c2ccc(-c3cc(Sc4ccccc4C#N)c4c(C#N)cnn4c3)cn2)CC1 [Example 664, 6-(6-(4-acetylpiperazin-1-yl)pyridin-3-yl)-4-((2-cyanophenyl)thio)pyrazolo [1,5-a]pyridine-3-carbonitrile]",0.2
12,"C[C@@H]1CN(c2ccc(-c3cc(Sc4ccccc4C#N)c4c(C#N)cnn4c3)cn2)C[C@H](C)O1 [Example 665, 4-((2-cyanophenyl)thio)-6-(6-((2S,6R)-2,6-dimethylmorpholino)pyridin-3-yl)pyrazolo[1,5-a]pyridine-3-carbonitrile]",1
13,"CN1C[C@H](n2cc(-c3cc(Sc4ccccc4C#N)c4c(C#N)cnn4c3)cn2)CCC1=O [Example 667, (R)-4-((2-cyanophenyl)thio)-6-(1-(1-methyl-6-oxopiperidin-3-yl)-1H-pyrazol-4-yl)pyrazolo[1,5-a]pyridine-3-carbonitrile]",1
14,"N#Cc1ccccc1Sc1cc(-c2cnn(CC[C@H](O)CO)c2)cn2ncc(C#N)c12 [Example 668, (S)-4-((2-cyanophenyl)thio)-6-(1-(3,4-dihydroxybutyl)-1H-pyrazol-4-yl)pyrazolo[1,5-a]pyridine-3-carbonitrile]",0.4
15,"N#Cc1ccccc1Sc1cc(-c2cnn(CC(=O)N3CCNCC3)c2)cn2ncc(C#N)c12 [Example 670, 4-((2-cyanophenyl)thio)-6-(1-(2-oxo-2-(piperazin-1-yl)ethyl)-1H-pyrazol-4-yl)pyrazolo[1,5-a]pryridine-3-carbonitrile]",1
16,"CNC(=O)CCn1cc(-c2cc(Sc3ccccc3C#N)c3c(C#N)cnn3c2)cn1 [Example 672, 3-(4-(3-cyano-4-((2-cyanophenyl)thio)pyrazolo [1,5-a]pyridin-6-yl)-1H-pyazol-1-yl)-N-methylpropanamide]",1
17,"N#Cc1ccccc1Sc1cc(-c2cnn(CCC(=O)N3CC[C@H](O)C3)c2)cn2ncc(C#N)c12 [Example 674, (S)-4-((2-cyanophenyl)thio)-6-(1-(3-(3-hydroxypyrrolidin-1-yl)-3-oxopropyl)-1H-pyrazol-4-yl)pyrazolo[1,5-a]pyridine-3-carbonitrile]",1
18,"N#Cc1ccccc1Sc1cc(-c2cnn(CCC(=O)N3CCNCC3)c2)cn2ncc(C#N)c12 [Example 675, 4-((2-cyanophenyl)thio)-6-(1-(3-oxo-3-(piperazin-1-yl)propyl)-1H-pyrazol-4-yl)pyrazolo[1,5-a]pyridine-3-carbonitrile]",0.6

# Next, values leading:
row,IC50 [nM],SMILES
1,3,Cc1c(-c2cc(Sc3ccccc3C#N)c3c(C#N)cnn3c2)cnn1[C@@H]1CCNC(=O)C1 [Example 643]
2,1.6,Cc1c(-c2cc(Sc3ccccc3C#N)c3c(C#N)cnn3c2)cnn1[C@H]1CCNC(=O)C1 [Example 644]
3,1.6,CC(=O)NC1CCN(c2ccc(-c3cc(Sc4ccc(F)cc4C#N)c4c(C#N)cnn4c3)cn2)C1 (stereo not shown) [Example 645]
4,0.5,"N#Cc1ccccc1Sc1cc(-c2ccc(N3CCO[C@H](CO)C3)nc2)cn2ncc(C#N)c12 [Example 649, (S)-4-((2-cyanophenyl)thio)-6-(6-(2-(hydroxymethyl)morpholi-no)pyridin-3-yl)pyrazolo[1,5-a]pryidine-3-carbonitrile]"
5,1,"N#Cc1ccccc1Sc1cc(-c2cnn(CC[C@@H](O)CO)c2)cn2ncc(C#N)c12 [Example 650, (R)-4-((2-cyanophenyl)thio)-6-(1-(3,4-dihydroxybutyl)-1H-pyrazol-4-yl)pyrazolo[1,5-a]pyridine-3-carbonitrile]"
6,1,"CC(C)(O)CCn1cc(-c2cc(Sc3ccccc3C#N)c3c(C#N)cnn3c2)cn1 [Example 653, 4-((2-cyanophenyl)thio)-6-(1-(3-hydroxy-3-methylbutyl)-1H-pyrazol-4-yl)pyrazolo[1,5-a]pyridine-3-carbonitrile]"
7,3,"N#Cc1cnn2cc(-c3ccc(N4C[C@@H](O)[C@H](O)C4)nc3)cc(Sc3ncccc3F)c12 [Example 655, 6-(6-((3R,4R)-3,4-dihydroxypyrrolidin-1-yl)pyridin-3-yl)-4-((3-fluoropyridin-2-yl)thio)pyrazolo[1,5-a]pyridine-3-carbonitrile]"
8,2,"CN1CCN(c2ccc(-c3cc(Sc4ncccc4F)c4c(C#N)cnn4c3)cn2)CC1=O [Example 656, 4-((3-fluoropyridin-2-yl)thio)-6-(6-(4-methyl-3-oxopiperazin-1-yl)pyridin-3-yl)pyrazolo[1,5-a]pyridine-3-carbonitrile]"
9,1.5,"CN=S1(=O)CCC(n2cc(-c3cc(Sc4ccc(F)cc4C#N)c4c(C#N)cnn4c3)cn2)CC1 (stereo not shown) [Example 658, 4-((2-cyano-4-fluorophenyl)thio)-6-(1-(1-(methylimino)-1-oxidohexahydro-1l6-thiopyran-4-yl)-1H-pyrazol-4-yl)pyrazolo[1,5-a]pyridine-3-carbonitrile]"
10,2,"N#Cc1cnn2cc(-c3ccc(N4CCNC(=O)C4)nc3)cc(Sc3ncccc3F)c12 [Example 662, 4-((3-fluoropyridin-2-yl)thio)-6-(6-(3-oxopiperazin-1-yl)pyridin-3-yl)pyrazolo[1,5-a]pyridine-3-carbonitrile]"
11,2,"CC(=O)NCCn1cc(-c2cc(Sc3ccccc3C#N)c3c(C#N)cnn3c2)cn1 [Example 663, N-(2-(4-(3-cyano-4-((2-cyanophenyl)thio)pyrazolo [1,5-a]pyridin-6-yl)-1H-pyrazol-1-yl)ethyl)acetamide]"
12,0.6,"Cc1c(-c2cc(Sc3ccc(F)cc3C#N)c3c(C#N)cnn3c2)cnn1C1CCOCC1 [Example 666, 4-((2-cyano-4-fluorophenyl)thio)-6-(5-methyl-1-(tetrahydro-2H-pyran-4-yl)-1H-pyrazol-4-y)pyrazolo[1,5-a]pyridine-3-carbonitrile]"
13,1,"CN(CCO)C(=O)Cn1cc(-c2cc(Sc3ccccc3C#N)c3c(C#N)cnn3c2)cn1 [Example 669, 2-(4-(3-cyano-4-((2-cyanophenyl)thio)pyrazolo [1,5-a]pyridin-6-yl)-1H-pyrazol-1-yl)-N-(2-hydroxyethyl)-N-methylacetamide]"
14,0.5,"CN(C)C(=O)CCn1cc(-c2cc(Sc3ccccc3C#N)c3c(C#N)cnn3c2)cn1 [Example 671, 3-(4-(3-cyano-4-((2-cyanophenyl)thio)pyrazolo [1,5-a]pyridin-6-yl)-1H-pyrazol-1-yl)-N,N-dimethylpropanamide]"
15,0.2,"N#Cc1ccccc1Sc1cc(-c2cnn(CCC(=O)N3CC[C@@H](O)C3)c2)cn2ncc(C#N)c12 [Example 673, (R)-4-((2-cyanophenyl)thio)-6-(1-(3-(3-hydroxypyrrolidin-1-yl)-3-oxopropyl)-1H-pyrazol-4-yl)pyrazolo[1,5-a]pyridine-3-carbonitrile]"
16,3,"Cc1c(-c2cc(Sc3ccc(F)cc3C#N)c3c(C#N)cnn3c2)cnn1CC[C@@H](O)CO [Example 676, (R)-4-((2-cyano-4-fluorophenyl)thio)-6-(1-(3,4-dihydroxybutyl)-5-methyl-1H-pyrazol-4-yl)pyrazolo[1,5-a]pyridine-3-carbonitrile]"
